Assay results reported in patent publication US20220211792A1, “COMPOSITION CONTAINING NATURAL EXTRACTS FOR ENHANCEMENT OF INNATE IMMUNITY OR ANTIVIRAL USE AGAINST INFLUENZA VIRUS OR CORONA VIRUS” (OKCHUNDANG CO., LTD., priority 2021, published 2022).

B1: IFN-β: mouse IFN-β (1,000 units/ml), positive control (protein, UniProt P01575 22-182, looked up)
Interferon beta: INYKQLQLQERTNIRKCQELLEQLNGKINLTYRADFKIPMEMTEKMQKSYTAFAIQEMLQNVFLVFRNNFSSTGWNETIVVRLLDELHQQTVFLKTVLEEKQEERLTWEMSSTALHLKSYYWRVQRYLKLMKYNSYAWMVVRAEIFRNFLIIRRLTRNFQN

Experiments:
[1] = tested on: influenza virus A/PR/8/34-GFP; type: cell-based
IAV = type: cell-based, influenza A virus
[2] = tested on: influenza virus (A/PR/8/34-GFP); type: cell-based

Row | Molecule | level of GFP compared with untreated cells [1] | levels of IAV proteins compared with untreated cells (IAV) | GFP (influenza virus infection rate) [2]
1 | O=C(/C=C/c1ccc(O)c(O)c1)O[C@@H]1C[C@](O)(C(=O)O)C[C@@H](O)[C@H]1O [chlorogenic acid] | lower | suppressed | 
2 | CC(C)=CCC[C@](C)(O[C@@H]1O[C@H](CO)[C@@H](O)[C@H](O)[C@H]1O)[C@H]1CC[C@]2(C)[C@@H]1[C@H](O)C[C@@H]1[C@@]3(C)CC[C@H](O[C@@H]4O[C@H](CO)[C@@H](O)[C@H](O)[C@H]4O[C@@H]4O[C@H](CO)[C@@H](O)[C@H](O)[C@H]4O)C(C)(C)[C@@H]3CC[C@]12C [ginsenoside Rd] | lower | suppressed | 
3 | B1 |  |  | 1.45
